Measurements reported in patent US10870872B2, “Enzymatic nucleic acid synthesis” (President and Fellows of Harvard College, priority 2016, dated 2020).

Key:
TdT [1] = target: T1, TdT (Homo sapiens, UniProt P04053); assay: Screen of nucleotide analogue substrates for TdT-based DNA synthesis (NPU formulation with Apyrase); format: biochemical; conditions: for efficiency as substrate of TdT versus natural counterpart: analogues more positively charged than natural counterparts; for behavior with respect to TdT-based DNA synthesis (extension efficiency, rate, extension length distribution): natural nucleotides
T1 sequence (P04053 whole entry, species assumed): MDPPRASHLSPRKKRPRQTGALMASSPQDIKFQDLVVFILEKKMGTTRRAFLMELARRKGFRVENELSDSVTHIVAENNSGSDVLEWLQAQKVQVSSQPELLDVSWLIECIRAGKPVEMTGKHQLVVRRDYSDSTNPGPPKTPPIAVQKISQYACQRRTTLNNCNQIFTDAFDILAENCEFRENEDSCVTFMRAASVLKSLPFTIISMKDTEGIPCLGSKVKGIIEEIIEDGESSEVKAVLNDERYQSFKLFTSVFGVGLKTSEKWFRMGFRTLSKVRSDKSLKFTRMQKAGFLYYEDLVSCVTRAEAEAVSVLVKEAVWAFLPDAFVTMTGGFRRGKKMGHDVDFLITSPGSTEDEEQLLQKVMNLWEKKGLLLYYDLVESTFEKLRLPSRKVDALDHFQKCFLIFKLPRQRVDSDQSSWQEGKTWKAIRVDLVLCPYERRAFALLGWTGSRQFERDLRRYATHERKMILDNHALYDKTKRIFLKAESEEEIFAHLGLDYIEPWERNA
From the text: In the general scheme of the presently disclosed methods, the distribution of extension length by TdT is important to ensure efficient and reliable encoding of information into DNA. […] The following nucleotide analogues with the NPU formulation which included Apyrase were explored.

TdT [2] = target: T1, TdT; assay: Chemical control of TdT extension by Apyrase on immobilized initiator oligo (PCR, agarose gel); format: biochemical; conditions: 0.001 U/μL Apyrase, 1 U/μL TdT, 4 minutes at room temperature
Protocol: According to an exemplary protocol of the present disclosure, an initiator oligonucleotide was first immobilized onto a surface, for example with the use of a 5 prime modified oligonucleotide onto aldehyde functionalized glass slides. After tethering the initiator to a solid support, the surface was treated to neutralize the chemical reactive groups such as aldehydes in this case, and to increase hydrophobicity.
Dilutions of nucleotides in solvents such as water or ethanol of the following concentration and types were prepared:
Each of these nucleotides were printed on an oligo spot with a liquid handling robot followed by printing of the enzymatic mix comprising TdT (Terminal deoxynucleotidyl transferase) and Apyrase. […]
Each of the synthesized DNA strands were released off the solid-support surface, in this exemplary embodiment, enzymatically, by the use of USER (Uracil-Specific Excision Reagent) enzyme which cleaves the uracils that are near the 5 prime distal end of the initial initiator oligonucleotide. These strands were subsequently PCR amplified and the number of synthesized nucleotides were evaluated by two methods: electrophoresis on agarose or PAGE gels for cursory bulk analysis and sequenced with next-generation sequencing platforms such as Illumina, Pacific Bioscience, and/or Oxford Nanopore for quantitative single-molecule analysis. […]

For `NC/C=C/c1cn(C2CC(O)C(COP(=O)(O)OP(=O)(O)OP(=O)(O)O)O2)c(=O)[nH]c1=O` (stereo not drawn) [5-Aminoallyl-dUTP], the “efficiency as substrate of TdT versus natural counterpart” value (TdT [1]) was “far more efficient substrates of TdT”.

For `NCC#Cc1cn(C2CC(O)C(COP(=O)(O)OP(=O)(O)OP(=O)(O)O)O2)c(=O)[nH]c1=O` (stereo not drawn) [5-Propargylamino-dUTP], the “efficiency as substrate of TdT versus natural counterpart” value (TdT [1]) was “far more efficient substrates of TdT”.

With `Nc1ncnc2c1ncn2[C@H]1C[C@H](O)[C@@H](COP(=O)(O)OP(=O)(O)OP(=O)(O)O)O1` [dATP] the “behavior with respect to TdT-based DNA synthesis (extension efficiency, rate, extension length distribution)” value (from here on “behavior”) (TdT [1]) was “poorest behavior”.

For `Nc1ccn([C@H]2C[C@H](O)[C@@H](COP(=O)(O)OP(=O)(O)OP(=O)(O)O)O2)c(=O)n1` [dCTP], the “behavior” value (TdT [1]) was “most optimal behavior”.

`Cc1cn([C@H]2C[C@H](O)[C@@H](COP(=O)(O)OP(=O)(O)OP(=O)(O)O)O2)c(=O)[nH]c1=O` [dTTP] was tested, and the “behavior” value (TdT [1]) was “poorest behavior”.

For Apyrase, the “effect on average amount of extension by TdT” value (TdT [2]) was “effectively limited the average amount of extension by TdT”.
